# In patent US20260174875A1 (Novo Nordisk A/S, priority 2023, published 2026):
# Assay: Chemical stability assessment in formulation (UPLC-UV-MS purity loss at 37° C.)
# Assay type: physicochemical
# Settings: 8 mM phosphate buffer pH 7.4, 1 mg/mL, 2 weeks
# Protocol: The assay was performed to investigate the extend of chemical degradation in vitro over time upon incubation at 37° C. for a period of 2 weeks.
# Peptide solutions were prepared by dissolving freeze-dried powder in 8 mM phosphate buffer pH 7.4 to a target of 1 mg/mL. The pH of peptide solutions was adjusted to 7.4 with 0.02 M HCl or 0.02 M NaOH. Samples were filled in Agilent HPLC vials with fixed insert. Vials were capped to prevent evaporation. The HPLC vials were incubated at 37° C. and samples were withdrawn at different time points over a period of 2 weeks, flash frozen at −80° C., and stored at −20° C. until analysis.
# A flow-rate of 100 μL/min was delivered with a Binary solvent manager pump having 0.1% formic acid in water as solvent A and 0.1% formic acid in acetonitrile as solvent B. Gradient elution was carried out using 20% B from 0 to 2 min followed by 20 to 50% B from 2 to 20 min in a total run time of 30 min.
row,Purity loss per week at 37° C.,SMILES
1,1.0%,CC[C@H](C)[C@H](NC(=O)[C@H](CCC(=O)O)NC(=O)[C@H](CCC(=O)O)NC(=O)[C@H](CC(C)C)NC(=O)[C@H](CC(C)C)NC(=O)[C@H](CCCCNC(=O)COCCOCCNC(=O)COCCOCCNC(=O)CC[C@H](NC(=O)CCCCCCCCCCCCCCCCCCC(=O)O)C(=O)O)NC(=O)[C@H](CO)NC(=O)[C@H](Cc1ccc(O)cc1)NC(=O)[C@H](CC(=O)O)NC(=O)[C@H](CO)NC(=O)[C@@H](NC(=O)[C@H](Cc1ccccc1)NC(=O)[C@@H](NC(=O)CNC(=O)[C@H](CCC(=O)O)NC(=O)C(C)(C)NC(=O)[C@@H](N)Cc1ccc(O)cc1)[C@@H](C)O)[C@@H](C)O)C(=O)N[C@@H](C)C(=O)N[C@@H](C)C(=O)N[C@@H](CCCNC(=N)N)C(=O)N[C@@H](CCC(=O)O)C(=O)N[C@@H](Cc1ccccc1)C(=O)N[C@H](C(=O)N[C@@H](CCC(=O)O)C(=O)N[C@@H](Cc1c[nH]c2ccccc12)C(=O)N[C@@H](CC(C)C)C(=O)N[C@@H](CC(C)C)C(=O)N[C@@H](C)C(=O)NCC(=O)NCC(=O)N1CCC[C@H]1C(=O)N[C@@H](CO)C(=O)N[C@@H](CO)C(=O)NCC(=O)N[C@@H](C)C(=O)NCC(=O)N[C@@H](C)C(=O)N[C@@H](CO)C(=O)N[C@@H](Cc1c[nH]cn1)C(=O)N[C@@H](CC(C)C)C(=O)N[C@@H](CO)C(=O)N[C@H](C(=O)N[C@@H](C)C(=O)N[C@@H](CCC(N)=O)C(=O)N[C@@H](CC(C)C)C(=O)NCC(=O)N[C@@H](CCCNC(=N)N)C(=O)N[C@@H](CC(C)C)C(=O)N[C@@H](CO)C(=O)N[C@@H](C)C(=O)N[C@@H](CCC(=O)O)C(=O)N[C@@H](CC(C)C)C(=O)N[C@@H](Cc1c[nH]cn1)C(=O)N[C@@H](CCC(N)=O)C(=O)N[C@@H](CC(C)C)C(=O)N[C@@H](C)C(=O)N[C@H](C(=O)N[C@@H](CCC(=O)O)C(=O)N1CCC[C@H]1C(=O)N[C@@H](CCCNC(=N)N)C(=O)N[C@H](C(=O)N[C@@H](CCC(=O)O)C(=O)N[C@H](C(=O)NCC(=O)N[C@@H](CO)C(=O)NCC(=O)N[C@@H](CO)C(=O)N1CCC[C@H]1C(N)=O)[C@@H](C)O)[C@@H](C)O)[C@@H](C)O)[C@@H](C)O)[C@@H](C)CC [Compound 184]
2,1.7%,CC[C@H](C)[C@H](NC(=O)[C@H](CCC(=O)O)NC(=O)[C@H](CCC(=O)O)NC(=O)[C@H](CC(C)C)NC(=O)[C@H](CC(C)C)NC(=O)[C@H](CCCCNC(=O)COCCOCCNC(=O)COCCOCCNC(=O)CC[C@H](NC(=O)CCCCCCCCCCCCCCCCCCC(=O)O)C(=O)O)NC(=O)[C@H](CO)NC(=O)[C@H](Cc1ccc(O)cc1)NC(=O)[C@H](CC(=O)O)NC(=O)[C@H](CO)NC(=O)[C@@H](NC(=O)[C@H](Cc1ccccc1)NC(=O)[C@@H](NC(=O)CNC(=O)[C@H](CCC(=O)O)NC(=O)C(C)(C)NC(=O)[C@@H](N)Cc1ccc(O)cc1)[C@@H](C)O)[C@@H](C)O)C(=O)N[C@@H](C)C(=O)N[C@@H](C)C(=O)N[C@@H](CCCNC(=N)N)C(=O)N[C@@H](CCC(=O)O)C(=O)N[C@@H](Cc1ccccc1)C(=O)N[C@H](C(=O)N[C@@H](CCC(=O)O)C(=O)N[C@@H](Cc1c[nH]c2ccccc12)C(=O)N[C@@H](CC(C)C)C(=O)N[C@@H](CC(C)C)C(=O)N[C@@H](C)C(=O)NCC(=O)NCC(=O)N1CCC[C@H]1C(=O)N[C@@H](CO)C(=O)N[C@@H](CO)C(=O)N[C@@H](CCC(=O)O)C(=O)N[C@@H](C)C(=O)NCC(=O)N[C@@H](C)C(=O)N[C@@H](CO)C(=O)N[C@@H](Cc1c[nH]cn1)C(=O)N[C@@H](CC(C)C)C(=O)N[C@@H](CO)C(=O)N[C@H](C(=O)N[C@@H](C)C(=O)N[C@@H](CCC(N)=O)C(=O)N[C@@H](CC(C)C)C(=O)NCC(=O)N[C@@H](CCCNC(=N)N)C(=O)N[C@@H](CC(C)C)C(=O)N[C@@H](CO)C(=O)N[C@@H](C)C(=O)N[C@@H](CCC(=O)O)C(=O)N[C@@H](CC(C)C)C(=O)N[C@@H](Cc1c[nH]cn1)C(=O)N[C@@H](CCC(N)=O)C(=O)N[C@@H](CC(C)C)C(=O)N[C@@H](C)C(=O)N[C@H](C(=O)N[C@@H](CCC(=O)O)C(=O)N1CCC[C@H]1C(=O)N[C@@H](CCCNC(=N)N)C(=O)N[C@H](C(=O)N[C@@H](CCC(=O)O)C(=O)N[C@H](C(=O)NCC(=O)N[C@@H](CO)C(=O)NCC(=O)N[C@@H](CO)C(=O)N1CCC[C@H]1C(N)=O)[C@@H](C)O)[C@@H](C)O)[C@@H](C)O)[C@@H](C)O)[C@@H](C)CC [Compound 185]
3,1.0%,CC[C@H](C)[C@H](NC(=O)[C@H](CCC(=O)O)NC(=O)[C@H](CCC(=O)O)NC(=O)[C@H](CC(C)C)NC(=O)[C@H](CC(C)C)NC(=O)[C@H](CCCCNC(=O)COCCOCCNC(=O)COCCOCCNC(=O)CC[C@H](NC(=O)CCCCCCCCCCCCCCCCCCC(=O)O)C(=O)O)NC(=O)[C@H](CO)NC(=O)[C@H](Cc1ccc(O)cc1)NC(=O)[C@H](CC(=O)O)NC(=O)[C@H](CO)NC(=O)[C@@H](NC(=O)[C@H](Cc1ccccc1)NC(=O)[C@@H](NC(=O)CNC(=O)[C@H](CCC(=O)O)NC(=O)C(C)(C)NC(=O)[C@@H](N)Cc1ccc(O)cc1)[C@@H](C)O)[C@@H](C)O)C(=O)N[C@@H](C)C(=O)N[C@@H](C)C(=O)N[C@@H](CCCNC(=N)N)C(=O)N[C@@H](CCC(=O)O)C(=O)N[C@@H](Cc1ccccc1)C(=O)N[C@H](C(=O)N[C@@H](CCC(=O)O)C(=O)N[C@@H](Cc1c[nH]c2ccccc12)C(=O)N[C@@H](CC(C)C)C(=O)N[C@@H](CC(C)C)C(=O)N[C@@H](C)C(=O)NCC(=O)NCC(=O)N1CCC[C@H]1C(=O)N[C@@H](CO)C(=O)N[C@@H](CO)C(=O)NCC(=O)N[C@@H](C)C(=O)NCC(=O)N[C@@H](C)C(=O)N[C@@H](CO)C(=O)N[C@@H](CCC(=O)O)C(=O)N[C@@H](CC(C)C)C(=O)N[C@@H](CO)C(=O)N[C@H](C(=O)N[C@@H](C)C(=O)N[C@@H](CCC(N)=O)C(=O)N[C@@H](CC(C)C)C(=O)NCC(=O)N[C@@H](CCCNC(=N)N)C(=O)N[C@@H](CC(C)C)C(=O)N[C@@H](CO)C(=O)N[C@@H](C)C(=O)N[C@@H](CCC(=O)O)C(=O)N[C@@H](CC(C)C)C(=O)N[C@@H](Cc1c[nH]cn1)C(=O)N[C@@H](CCC(N)=O)C(=O)N[C@@H](CC(C)C)C(=O)N[C@@H](C)C(=O)N[C@H](C(=O)N[C@@H](CCC(=O)O)C(=O)N1CCC[C@H]1C(=O)N[C@@H](CCCNC(=N)N)C(=O)N[C@H](C(=O)N[C@@H](CCC(=O)O)C(=O)N[C@H](C(=O)NCC(=O)N[C@@H](CO)C(=O)NCC(=O)N[C@@H](CO)C(=O)N1CCC[C@H]1C(N)=O)[C@@H](C)O)[C@@H](C)O)[C@@H](C)O)[C@@H](C)O)[C@@H](C)CC [Compound 186]
